Assays:
[1] = test system: IL-1α/IL-1 receptor (IL-1R) signaling; assay: Western blotting of HCA2 lysates for IRAK1, IκBα, RelA; assay type: cell-based, human; conditions: senescent cells; 500 nM corticosterone or 100 nM cortisol
Procedure: Cells were lysed in RIPA buffer. Lysates were sonicated (10 sec), followed by centrifugation. Samples were incubated at 70° C. for 10 min, loaded on 4-15% gradient tris-glycine SDS-polyacrylamide gels (Invitrogen) and separated by electrophoresis. Proteins were transferred to PVDF membranes, blocked in TBST 5% milk for 1 hour at room temperature, and probed overnight at 4° C. with primary antibodies in blocking buffer. Membranes were washed in TBST, and incubated with horseradish peroxidase-conjugated secondary antibodies for 1 hour at room temperature. Blots were developed using Western detection substrate (GE Healthcare).
Primary antibodies and dilutions were: anti-GR (SC-8992, Santa Cruz; 1:500), anti-actin (ab6276, Abcam; 1:50000), anti-MCR (SC-11412, Santa Cruz; 1:500), anti-IRAK1 (SC-5288, Santa Cruz; 1:500), anti-IκBα (#9247, Cell Signaling; 1:500), anti-RelA (SC-109, Santa Cruz; 1:500), and anti-53BP1 (A300-272A, Bethyl; 1:500).

[2] = molecular target: T1, mineralocorticoid receptor (Homo sapiens, UniProt P08235); assay: Immunostaining for mineralocorticoid receptor localization in HCA2 cells; conditions: 500 nM corticosterone or 100 nM cortisol, 1 or 7 days
T1 sequence (P08235 1-984): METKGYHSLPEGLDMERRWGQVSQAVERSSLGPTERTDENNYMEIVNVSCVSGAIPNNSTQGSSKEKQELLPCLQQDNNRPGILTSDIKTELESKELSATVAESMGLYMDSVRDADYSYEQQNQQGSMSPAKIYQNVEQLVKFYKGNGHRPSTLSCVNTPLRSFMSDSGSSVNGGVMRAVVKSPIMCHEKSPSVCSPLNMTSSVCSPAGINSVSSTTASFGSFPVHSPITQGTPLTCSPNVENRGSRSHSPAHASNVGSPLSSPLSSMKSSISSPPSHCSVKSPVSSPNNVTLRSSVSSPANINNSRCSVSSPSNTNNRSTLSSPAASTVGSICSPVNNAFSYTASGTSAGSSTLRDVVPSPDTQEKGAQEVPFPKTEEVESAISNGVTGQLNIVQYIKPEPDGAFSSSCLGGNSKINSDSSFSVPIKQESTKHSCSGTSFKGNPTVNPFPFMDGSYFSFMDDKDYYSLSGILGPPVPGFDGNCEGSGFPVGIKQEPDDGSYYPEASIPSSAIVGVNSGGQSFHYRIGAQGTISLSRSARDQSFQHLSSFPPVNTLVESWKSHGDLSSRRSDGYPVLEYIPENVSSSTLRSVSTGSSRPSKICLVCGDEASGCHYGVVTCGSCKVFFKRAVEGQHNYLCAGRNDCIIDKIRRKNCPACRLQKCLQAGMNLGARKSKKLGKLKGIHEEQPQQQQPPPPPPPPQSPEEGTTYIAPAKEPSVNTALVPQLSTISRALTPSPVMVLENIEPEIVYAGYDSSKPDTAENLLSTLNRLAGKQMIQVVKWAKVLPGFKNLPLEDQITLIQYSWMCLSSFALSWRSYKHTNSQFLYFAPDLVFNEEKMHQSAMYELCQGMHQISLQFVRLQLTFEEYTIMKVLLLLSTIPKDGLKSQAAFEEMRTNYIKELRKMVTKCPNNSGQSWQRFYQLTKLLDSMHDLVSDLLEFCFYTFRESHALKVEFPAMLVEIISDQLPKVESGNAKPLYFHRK

IL-6 = assay: Initial drug screen (Prestwick Chemical Library), IL-6 ELISA of medium; assay type: cell-based, human; conditions: 2.5 μM, 48 hours, HCA2 fibroblasts, 0.2% serum
Procedure: The initial drug screen was performed in a 96-well format using automated liquid handling with a Biomek FX (Beckman Coulter, CA). Senescent cells were plated 24 hours after X-irradiation at 7,500 cells per well in 96-well plates. Six days after plating the senescent cells, the pre-senescent cells were plated at 7,500 cells per well in 96-well plates. Twenty-four hours after pre-senescent plating, both pre-senescent and senescent cells were washed and incubated in low (0.2%) serum for 48 hours to arrest cell proliferation of the pre-senescent cells. […] Forty-eight hours after compound addition, the medium in each well was removed and frozen for assay by ELISA to quantitate the levels of IL-6. The cells, which remained in the wells after the medium was removed, were lysed and ATP levels were measured (ATPlite 1-step assay, Perkin Elmer, MA) to exclude compounds that lowered IL-6 through toxicity (cell death). Experimental wells in each plate were normalized to plate mean or same-plate DMSO controls for the ELISA and ATP assays, respectively.
To identify small molecules that may be potential SASP modulators, a screening strategy that entailed administering compounds to parallel 96-well plates containing human fibroblasts (strain HCA2) that were either quiescent or senescent was developed. […] After 48 hours, the medium from each well was removed, and the cells were lysed. […] Cell lysates were assayed for ATP as a surrogate for cell number.

Structure (SMILES)	IRAK1 and IκBα protein abundance [1]	mineralocorticoid receptor localization [2]	IL-6 secretion (ELISA) (IL-6)
C[C@]12CCC(=O)C=C1CC[C@@H]1[C@@H]2[C@@H](O)C[C@@]2(C)[C@H]1CC[C@]2(O)C(=O)CO [cortisol]	restored IRAK1 and IκBα proteins to near-presenescent levels	remained cytoplasmic	suppressed IL-6 secretion
C[C@]12C[C@H](O)[C@H]3[C@@H](CCC4=CC(=O)CC[C@@]43C)[C@@H]1CC[C@@H]2C(=O)CO [corticosterone]	restored IRAK1 and IκBα proteins to near-presenescent levels	remained cytoplasmic	suppressed IL-6 secretion

— patent publication US9884065B2, “Inhibiting activity of senescent cells using a glucocorticoid” (Buck Institute for Research on Aging, priority 2011, dated 2018)
